Source: patent US5310667A (priority 1989, dated 1994)
≈ marks a conversion by molar mass, not a printed value.

What was measured:
[1] = tested on: petunia leaf disks transformed with pMON546 (CaMV35S/EPSP synthase gene); test: Leaf disk callus growth on glyphosate media; type: cell-based; settings: within 10 days
Method: (§1) Leaf disks with diameters of 6 mm (1/4 inch) were taken from surface-sterilized petunia leaves. They were cultivated on MS104 agar medium for 2 days to promote partial cell wall formation at the wound surfaces. They were then submerged in a culture of A. tumefaciens cells containing both pMON546 and GV3111-SE which had been grown overnight in Luria broth at 28° C., and shaken gently. The cells were removed from the bacterial suspension, blotted dry, and incubated upside down on filter paper placed over "nurse" cultures of tobacco cells, as described by Horsch (1980). After 2 or 3 days, the disks were transferred to petri dishes containing MS media with 500 μg/ml carbenicillin and 0. 0.1, 0.25, or 0.5 mM glyphosate (sodium salt), with no nurse cultures.
(§2) Control tissue was created using A. tumefaciens cells containing the helper plasmid pGV3111-SE and a different plant transformation vector, pMON505, which contained a T-DNA region with a NOS/NPTII/NOS kanamycin resistance gene and a NOS selectable marker gene identical to pMON546, but without the CaMV35S/EPSP synthase gene.

[2] = tested on: control petunia leaf disks (pMON505); test: Leaf disk callus growth on glyphosate media; type: cell-based; settings: within 10 days
Method: as §1, §2

[3] = tested on: tobacco plants transformed with wild-type EPSP synthase gene; test: Relative effect of glyphosate spraying on transformed tobacco; type: in vivo, Nicotiana tobacam CV H425; settings: WT, 0 total kill, 10 no effect, best transformant
From the text: A culture of A. tumefaciens cells containing pMON567/pGV3111-SE was contacted with leaf disks taken from tobacco plants (Nicotiana tobacam CV H425) as described by Horsch (1985). The Agrobacterium cells inserted the variant EPSP synthase gene into the chromosomes of the plant cells. Plant cells resistant to kanamycin were selected and regenerated into differentiated plants by the procedure of Horsch (1985).
Progeny of these plants were propagated and grown to a rosette diameter of about 10 cm corresponding to a plant age of about four weeks. The plants were sprayed with glyphosate at levels corresponding to 0.4, 2.0 and 3.6 pounds acid equiv./acre. The effect of glyphosate on the transformed plants were scored at 7, 14 and 28 days. The effect was translated to a numerical scale of 0-10 in which 0 represents total kill and 10 is the normal, unsprayed plant. […] The values represent the best transformant for both wild-type EPSP synthase and glyphosate-tolerant EPSP synthase genes.

E. coli strain JM101 = test: Growth on minimal medium plates with increasing glyphosate; type: cell-based; settings: Escherichia coli, read-out: glyphosate concentration that inhibits endogenous EPSP synthase activity and growth on minimal media
From the text: A multi-step screening procedure was used to identify glyphosate resistant variants of petunia EPSPS.

[4] = biological target: T1, pMON8186 encoded petunia EPSP synthase variant (glycine (101) to alanine and glycine (144) to aspartic acid) (Petunia hybrida, UniProt P11043, G173A/G216D); test: EPSP synthase kinetic constants (appKi glyphosate, appKm PEP); type: biochemical
T1 construct: GGT codon for glycine (144) in the mature petunia EPSP synthase; made in house; host or cells: E. coli SR481
T1 sequence (P11043 73-516 G173A/G216D): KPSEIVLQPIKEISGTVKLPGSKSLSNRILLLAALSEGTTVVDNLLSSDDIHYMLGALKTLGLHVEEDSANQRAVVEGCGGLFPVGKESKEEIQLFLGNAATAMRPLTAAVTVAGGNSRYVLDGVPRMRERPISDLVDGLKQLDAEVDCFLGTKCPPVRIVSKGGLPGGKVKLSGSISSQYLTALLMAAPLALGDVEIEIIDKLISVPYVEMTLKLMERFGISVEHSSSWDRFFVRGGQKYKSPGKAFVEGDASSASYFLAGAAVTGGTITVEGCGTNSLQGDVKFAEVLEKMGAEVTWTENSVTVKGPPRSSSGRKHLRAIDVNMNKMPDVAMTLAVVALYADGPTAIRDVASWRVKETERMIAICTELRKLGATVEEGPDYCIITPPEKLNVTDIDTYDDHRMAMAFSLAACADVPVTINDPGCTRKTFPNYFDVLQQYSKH
Method: The balance of the #215 preculture (~750 μl) was used to inoculate 2 ml of MOPS medium containing 50 μg/ml carbenicillin and was shaken overnight at 37° C. to reach saturation. Plasmid DNA was isolated from an aliquot of the saturated culture using an alkaline lysis procedure. The plasmid was designated pMON8186. An aliquot of the pMON8186 plasmid was used to transform the E. coli host SR481 (described above) and reselected on MOPS medium containing 10 mM glyphosate and 50 μg/ml carbenicillin. A single glyphosate resistant colony of pMON8186 was picked off the selection plate and used to inoculate 3 ml of 2XYT bacterial medium containing 50 μg/ml carbenicillin. The culture was then aerated on rotating wheel at 37° C. until saturated, then it was used to inoculate a larger 500 ml culture. The large culture was grown to saturation by shaking it overnight at 37° C. in a water bath. The bacterial cells were lysed and the extracts were assayed for EPSPS activity.
Specifically, the bacterial cell paste was washed twice with 0.9% saline, suspended in buffer (100 mM Tris-HCl, 5 mM benzamidine HCl) and passed twice through the French Pressure Cell at 1000 psi. The cell extract was separated from the cells by centrifuging at 15,000 x gravity for 10 mins. at 5° C. It was desalted using Sephadex G-50 (Pharmacia, Piscataway, N.J.). The desalted extract was assayed for EPSP synthase activity as follows:
To an assay mix (40 μl) containing shikimate-3-phosphate (2 mM), ^14 C-phosphoenolpyruvate (1 mM, 1.2 mCi/mmol), ammonium molybdate (0.1 mM), potassium fluoride (5 mM) in 50 mM HEPES-KOH, pH 7, was added the extract and incubated at 25° C. for 2 mins. The reaction was quenched by the addition of 50 μl of 50 μl of 90% ethanol/0.1M acetic acid, pH 4.5. […] The radioactivity of the eluent was monitored using a Radiomatic Flo-One Beta Instrument. […] The EPSP synthase activity was determined by measurement of the conversion of ^14 C-PEP to ^14 C-EPSP synthase, both of which are resolved under the above conditions of chromatography. The protein content of the extract was determined by the method of Bradford (Biorad Labs, Calif.). The specific activity of the extract is expressed as nanomoles of EPSP synthase formed/min/mg protein.
Kinetic constants (appKm PEP and appKi glyphosate) were determined for EPSP synthase as described below. Substrate kinetic parameters were determined at pH 7.0 in 50 mM HEPES (N-[2-hydroxyethyl]piperazine-N'-[2-ethanesulfonic acid]) buffer in the presence of 2 mM S3P and varying amounts of ^14 C-PEP (10 μM-400 μM), for 2.0 minutes at 25° C. Reactions were quenched with 100 mM Na Acetate in ethanol, pH 4.5, centrifuged and analyzed for product EPSP formation by HPLC with flow radioactivity detection. […]

[5] = 0.1 mM glyphosate (sodium salt)
[6] = 0.25 mM glyphosate (sodium salt)
[7] = 0.5 mM glyphosate (sodium salt)

O=C(O)CNCP(=O)(O)O [glyphosate, N-phosphonomethylglycine]
callus growth [1, 5]: little detectable difference between the control disks and the transformed tissue
callus growth [1, 6]: substantial growth of transformed tissue
callus growth [1, 7]: a significant number of calli grew
callus growth [2, 5]: little detectable difference between the control disks and the transformed tissue
callus growth [2, 6]: very little growth of callus
callus growth [2, 7]: no callus growth
Relative Effect of Glyphosate ([3]; 0.4 pounds/Acre, day 7): 6.0
Relative Effect of Glyphosate ([3]; 0.4 pounds/Acre, day 14): 7.0
Relative Effect of Glyphosate ([3]; 0.4 pounds/Acre, day 28): 9.0
Relative Effect of Glyphosate ([3]; 2.0 pounds/Acre, day 7): 5.0
Relative Effect of Glyphosate ([3]; 2.0 pounds/Acre, day 14): 1.8
Relative Effect of Glyphosate ([3]; 2.0 pounds/Acre, day 28): 0.8
Relative Effect of Glyphosate ([3]; 3.6 pounds/Acre, day 7): 5.0
Relative Effect of Glyphosate ([3]; 3.6 pounds/Acre, day 14): 1.7
Relative Effect of Glyphosate ([3]; 3.6 pounds/Acre, day 28): 0.8
MIC (E. coli strain JM101): 2000 µM (≈ 338 µg/mL)
Ki for glyphosate [4]: 348 µM
Ki/Km ratio ([4]; Ki glyphosate / Km PEP): 7.7
